Assay results reported in patent US20250009627A1, “THERAPEUTIC AND NON-THERAPEUTIC USES OF A PERSONAL CLEANSING COMPOSITION AND METHODS OF TREATMENT” (The Procter & Gamble Company, priority 2023, published 2025).

Experiments:
[1] = tested on: Corynebacterium minutissimum ATCC 23348; assay: In vitro Minimum Inhibitory Concentration (MIC) testing; assay type: cell-based; settings: for MIC: ATCC23348, read-out: Minimum Inhibition Concentration MIC
Procedure: (§1) The in vitro Minimum Inhibitory Concentration (MIC) Assay is a technique for determining the lowest concentration of a particular compound needed to prevent growth of microorganism. Different microorganisms were used to evaluate bacterial inhibition benefits for sulfate surfactants (Table 1) [table] Microorganisms are cultured and maintained in different culture medium. Each respective microorganism stock solution is diluted to 10^5 to 10^6 CFU/mL in a respective growth medium. 180 μl broth with the respective target microorganism is allocated into 96 well plates. For instance, Corynebacterium minutissimum ATCC 23348 is cultured on tryptic soy agar (TSA) (Oxoid CM0131) over 24 hours. The single colonies are then transferred into 20 mL Tryptone Soy Broth (Oxoid CM0129B—TSB) and cultured overnight at 200 rpm/min, 37° C. Bacterial cell in broth will be diluted to 10^5 to 10^6 CFU/mL in TSB. 180 μL of this bacterium-MHB mix is added to a 96 well flat-bottomed plate (Nunc™ MicroWell™ 96-Well, CAT. No. 167008). Sodium oleyl sulfate prepared from two different synthesis batches (Ex. 1A and Ex. 1B), sodium octyl sulfate, sodium decyl sulfate, sodium lauryl sulfate were mixed respectively with in Deionized (DI) water. Octadecyl sulfate sodium was mixed in Dimethyl sulfoxide (DMSO). Two folds serial dilution are applied to each respective active by mixing 100 μl active stock solution (from 1 wt. %) plus 100 μl sterilized DI water or DMSO in 96 well plates (Nunc™ MicroWell™ 96-Well, CAT. No. 167008). For each assay, 0.001-1 wt. % treatment solutions are prepared for each individual active. Micropipettes are used to transfer 20 μl of actives at different concentration into each well with 180 μl broth with the respective target microorganisms. The 96 well plates with test microorganisms and test actives are incubated at 37° C. • a) E. coli are incubated for overnight 16 hours to 24 hour. • b) Corynebacterium minutissimum is incubated for two days. • c) Cutibacterium acnes is incubated for two days under anaerobic conditions. After incubation, microorganism growth is determined in presence of test actives by visual inspection or spectrophotometer by OD600 (absorbance at 600 nm using Tecan M200 Infinite Pro Microplate Reader) reading in comparison with positive control (broth with individual microorganism) and negative control (Broth only). MIC values are presented as parts per million (ppm) for different actives.

[2] = tested on: Cutibacterium acne 2044 NIA (skin isolate); assay: as above; assay type: cell-based, Cutibacterium acnes; settings: for MIC: read-out: Minimum Inhibition Concentration MIC
Procedure: The in vitro Minimum Inhibitory Concentration (MIC) Assay is a technique for determining the lowest concentration of a particular compound needed to prevent growth of microorganism. Different microorganisms were used to evaluate bacterial inhibition benefits for sulfate surfactants (Table 1)
Microorganisms are cultured and maintained in different culture medium. Each respective microorganism stock solution is diluted to 10^5 to 10^6 CFU/mL in a respective growth medium. 180 μl broth with the respective target microorganism is allocated into 96 well plates.
Sodium oleyl sulfate prepared from two different synthesis batches (Ex. 1A and Ex. 1B), sodium octyl sulfate, sodium decyl sulfate, sodium lauryl sulfate were mixed respectively with in Deionized (DI) water. Octadecyl sulfate sodium was mixed in Dimethyl sulfoxide (DMSO).
Two folds serial dilution are applied to each respective active by mixing 100 μl active stock solution (from 1 wt. %) plus 100 μl sterilized DI water or DMSO in 96 well plates (Nunc™ MicroWell™ 96-Well, CAT. No. 167008). For each assay, 0.001-1 wt. % treatment solutions are prepared for each individual active.
Micropipettes are used to transfer 20 μl of actives at different concentration into each well with 180 μl broth with the respective target microorganisms.
The 96 well plates with test microorganisms and test actives are incubated at 37° C. • a) E. coli are incubated for overnight 16 hours to 24 hour. • b) Corynebacterium minutissimum is incubated for two days. • c) Cutibacterium acnes is incubated for two days under anaerobic conditions.
After incubation, microorganism growth is determined in presence of test actives by visual inspection or spectrophotometer by OD600 (absorbance at 600 nm using Tecan M200 Infinite Pro Microplate Reader) reading in comparison with positive control (broth with individual microorganism) and negative control (Broth only). MIC values are presented as parts per million (ppm) for different actives.
C. acne SK137 and C. acne 2044NIA (P&G skin isolate) are from Type IA-2 Clade by whole genome sequencing, which is reported to be associated with skin acne conditions.

[3] = tested on: Staphylococcus aureus ATCC6538; assay: as above; assay type: cell-based; settings: for MIC: read-out: Minimum Inhibition Concentration MIC
Procedure: as §1, with “plates.” for “plates. For instance, Corynebacterium minutissimum ATCC 23348 is cultured on tryptic soy agar (TSA) (Oxoid CM0131) over 24 hours. The single colonies are then transferred into 20 mL Tryptone Soy Broth (Oxoid CM0129B—TSB) and cultured overnight at 200 rpm/min, 37° C. Bacterial cell in broth will be diluted to 10^5 to 10^6 CFU/mL in TSB. 180 μL of this bacterium-MHB mix is added to a 96 well flat-bottomed plate (Nunc™ MicroWell™ 96-Well, CAT. No. 167008).”

[4] = tested on: Escherichia coli ATCC25922; assay: as above; assay type: cell-based; settings: for MIC: Escherichia coli ATCC25922, pH of the assay 7.2, read-out: Minimum Inhibition Concentration MIC
Procedure: as §1, with “plates.” for “plates. For instance, Corynebacterium minutissimum ATCC 23348 is cultured on tryptic soy agar (TSA) (Oxoid CM0131) over 24 hours. The single colonies are then transferred into 20 mL Tryptone Soy Broth (Oxoid CM0129B—TSB) and cultured overnight at 200 rpm/min, 37° C. Bacterial cell in broth will be diluted to 10^5 to 10^6 CFU/mL in TSB. 180 μL of this bacterium-MHB mix is added to a 96 well flat-bottomed plate (Nunc™ MicroWell™ 96-Well, CAT. No. 167008).”

[5] = tested on: Cutibacterium acne SK137; assay: as above; assay type: cell-based, Cutibacterium acnes; settings: for MIC: Cutibacterium, SK137, Cutibacterium acne SK137, anaerobic, read-out: Minimum Inhibition Concentration MIC; for bacterial inhibition of Cutibacterium acne (in words): two strains (SK137, 2044 NIA)
Procedure: as §1, with “plates.” for “plates. For instance, Corynebacterium minutissimum ATCC 23348 is cultured on tryptic soy agar (TSA) (Oxoid CM0131) over 24 hours. The single colonies are then transferred into 20 mL Tryptone Soy Broth (Oxoid CM0129B—TSB) and cultured overnight at 200 rpm/min, 37° C. Bacterial cell in broth will be diluted to 10^5 to 10^6 CFU/mL in TSB. 180 μL of this bacterium-MHB mix is added to a 96 well flat-bottomed plate (Nunc™ MicroWell™ 96-Well, CAT. No. 167008).”

[6] = tested on: E. coli ATCC25922; assay: Kill Rate Test in liquid (suspension time-kill testing); assay type: cell-based, Escherichia coli
Text: The suspension time-kill test is a method to directly inoculate a liquid test substance with a high concentration of test microorganisms and then determine the percentage of killed over time, normally represented as log CFU reduction. The objective is to measure the biocidal potential of a liquid antimicrobial active or formulation.
E. coli ATCC25922 is streaked on Tryptic Soy Agar (TSA) Plates and cultured overnight. Pick up one colony of E. coli ATCC25922 and subculture bacterial cell in Tryptic Soy Broth (TSB) @ 200 rpm/min, 37° C. for 12-16 hours. After culturing, 1 mL bacterial cells in broth are pipetted into 2 mL tubes. Samples are centrifuged for 2 mins at 13000 rpm/min. Cell supernatant are discarded, and bacterial cells are resuspended in 1 mL Saline @ 10^8 to 10^9 CFU/mL. 1 mL liquid antimicrobial active to be tested under different concentrations is prepared: 20 mM acetate buffers are used to maintain the test solutions at a pH between 4.0 and 5.7. 10 mM phosphate buffer is used to maintain the test solution at a pH around 7.2. 20 mM Tris-HCl buffers are used to maintain the test solutions at a pH between 8.0 and 9.0. 1 mL saline (NaCl 0.9 wt. %) is used to as negative control in the study. 50 μl of 10^8 to 10^9 CFU/mL bacterial cells are added into each treatment and saline control. Samples were thoroughly mixed by vertexing 5 seconds. After incubating 30 minutes, 50 μl liquid from each treatment sample and saline control are pipetted out into for Total Viable Count Vial (NEOGEN). All measurements are done in duplicates. The Detection Time (DT) for Total Viable Count Vial is measured by Soleris® Next Generation (NEOGEN) system. DT values are averaged for each treatment and control for further calculation. DT time for each sample is converted to Log (viable cell number) by using algorithm generated for E. coli ATCC25922:
Biocidal potential of different actives at different concentrations and at different pHs in a liquid solution is measured by: […]

[7] = Text: The term “Biodegradable Test” as used herein means the test as described in the Test Method Section herein in which the test material is suspended in a phosphate buffered media containing an activated sludge inoculum and the formation of carbon dioxide measured via a closed-circuit respirometer. The test material is the sole carbon and energy source and under aerobic conditions microorganisms metabolize organic substances producing CO2 as the ultimate product. The biodegradability of the salt of the alkenyl sulfate ester, preferably sodium oleyl sulfate can be tested according to the following method. The Biodegradability Test Method is based on the Organization for Economic Co-operation and Development (OECD) 301B CO2 evolution biodegradation test method that screens chemicals for ready biodegradability in an aerobic aqueous medium. In this test, the test substance is suspended in a phosphate buffered nutrient salts media containing an activated sludge inoculum and the formation of carbon dioxide is measured via a closed-circuit respirometer. […] The test system is dosed with a known quantity of carbon and biodegradation is calculated as the percent of theoretical CO2 formation. […] Ready biodegradability is a regulator definition that is used to classify materials that meet the pass criteria as described in the OECD 301B guideline. […]
[8] = Corynebacterium minutissimum ATCC 23348

| Structure (SMILES) | MIC [1, 8] [µg/mL] | MIC [2] [µg/mL] | MIC ([3]; Staphylococcus aureus ATCC6538) [µg/mL] | MIC [4] [µg/mL] | MIC [5] [µg/mL] | inhibition of S. aureus (in words) [3] | also measured |
| --- | --- | --- | --- | --- | --- | --- | --- |
| CCCCCCCC/C=C\CCCCCCCCOS(=O)(=O)[O-].[Na+] [Ex. 1A, sodium oleyl sulfate] | 3.9 | 7.8 | 3.9 | > 1000 | 3.9 | – | – |
| CCCCCCCC/C=C\CCCCCCCCOS(=O)(=O)[O-].[Na+] [Ex. 1B, sodium oleyl sulfate] | – | – | – | – | – | – | Minimum Inhibition Concentration MIC [1, 8]: 3.9 ppm; Minimum Inhibition Concentration MIC [2]: 7.8 ppm; Minimum Inhibition Concentration MIC ([3]; Staphylococcus aureus ATCC6538): 3.9 ppm; Minimum Inhibition Concentration MIC ([5]; Cutibacterium acne SK137, anaerobic, sulfate): 7.8 ppm; bactericidal activity against E. coli ATCC25922 (log CFU reduction) ([6]; 12.5 ppm, test pH 4, 30 minutes): 4.3; bactericidal activity against E. coli ATCC25922 (log CFU reduction) ([6]; 12.5 ppm, test pH 5.1, 30 minutes): 0; bactericidal activity against E. coli ATCC25922 (log CFU reduction) ([6]; 50 ppm, test pH 4, 30 minutes): 6.6; bactericidal activity against E. coli ATCC25922 (log CFU reduction) ([6]; 50 ppm, test pH 5.1, 30 minutes): <0.3; bactericidal activity against E. coli ATCC25922 (log CFU reduction) ([6]; 200 ppm, test pH 4, 30 minutes): 6.6; bactericidal activity against E. coli ATCC25922 (log CFU reduction) ([6]; 200 ppm, test pH 5.1, 30 minutes): <0.3 |
| CCCCCCCCCCCCCCCCCCOS(=O)(=O)[O-].[Na+] [octadecyl sulfate sodium salt] | > 500 | > 500 | > 500 | > 1000 | > 500 | ineffective | bacterial inhibition of Cutibacterium acne (in words) [5]: no effect |
| CCCCCCCCCCOS(=O)(=O)[O-].[Na+] [sodium decyl sulfate] | > 500 | > 500 | > 1000 | > 1000 | > 500 | No inhibition | – |
| CCCCCCCCCCCCOS(=O)(=O)[O-].[Na+] [sodium lauryl sulfate] | 125 | 62.5 | 125 | > 1000 | 31.2 | less potent than sodium oleyl sulfate | – |
| CCCCCCCCOS(=O)(=O)[O-].[Na+] [sodium octyl sulfate] | > 500 | > 500 | > 1000 | > 1000 | > 500 | No inhibition | – |
| CCCCCCCC/C=C\CCCCCCCCOS(=O)(=O)[O-].[Na+] [sodium oleyl sulfate] | – | – | – | – | – | – | bacterial inhibition of Corynebacterium minutissimum (in words) [1]: strong bacterial inhibition effects; effect against gram-negative E. coli (in words) ([4]; pH of the assay of 7.2): ineffective; bacterial inhibition of Cutibacterium acne (in words) [5]: strong bacterial inhibition effects; ready biodegradability [7]: meeting both requirements for ready biodegradability; bactericidal activity against E. coli in solution (in words) ([6]; pH up to or equal to 4): some bactericidal activity |
